# Measurements reported in the supplement of paper PMC4862054.
# Columns and labels:
# Settings in all cases: incubation time: 72 h
# MDA-MB-468 [1] = experiment: normalised response (% of control), CellTox Green; higher = less cell death (100 = DMSO, 0 = benzethonium chloride kill control)
# Method in brief: (§1)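 Breast cancer cell lines (20 µl suspension) were seeded into 384-well plates holding compound at 5 concentrations in 10-fold steps over a compound-specific 10,000-fold range, then incubated 72 h. CellTox Green fluorescence (485/520 nm) was read first, then CellTiter-Glo luminescence after 10 min at room temperature. Each plate was normalised to 0.1 % DMSO (100) and a positive kill control (0). Each value is the normalised signal at a single concentration of the series.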
# MFM-223 [2] = experiment: as above
# Method in brief: as §1
# HDQ-P1 [3] = experiment: as above
# Method in brief: as §1
# DU-4475 [4] = experiment: as above
# Method in brief: as §1
# MDA-MB-453 [5] = experiment: as above
# Method in brief: as §1
# MDA-MB-436 [6] = experiment: as above
# Method in brief: as §1
# CAL-85-1 [7] = experiment: as above
# Method in brief: as §1
# HCC1143 [8] = experiment: as above
# Method in brief: as §1
# BT-474 [9] = experiment: as above
# Method in brief: as §1
# MCF-10A [10] = experiment: as above
# Method in brief: as §1
# CAL-120 [11] = experiment: as above
# Method in brief: as §1
# Hs578T [12] = experiment: as above
# Method in brief: as §1
# CAL-148 [13] = experiment: as above
# Method in brief: as §1
# BT-549 [14] = experiment: as above
# Method in brief: as §1
# MDA-MB-231 [15] = experiment: as above
# Method in brief: as §1
# HCC1599 [16] = experiment: as above
# Method in brief: as §1
# CAL-51 [17] = experiment: as above
# Method in brief: as §1
# HCC1937 [18] = experiment: as above
# Method in brief: as §1
# MDA-MB-468 [19] = experiment: normalised response (% of control), CellTiter-Glo; higher = more viable cells (100 = DMSO, 0 = benzethonium chloride kill control)
# Method: (§2)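 DSRT, 72 h incubation, CellTox Green / CellTiter-Glo readout. Signal is normalised to DMSO and benzethonium chloride controls. Value is the normalised response at the highest dose.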
# MFM-223 [20] = experiment: as above
# Method: as §2
# HDQ-P1 [21] = experiment: as above
# Method: as §2
# DU-4475 [22] = experiment: as above
# Method: as §2
# MDA-MB-453 [23] = experiment: as above
# Method: as §2
# MDA-MB-436 [24] = experiment: as above
# Method: as §2
# CAL-85-1 [25] = experiment: as above
# Method: as §2
# HCC1143 [26] = experiment: as above
# Method: as §2
# BT-474 [27] = experiment: as above
# Method: as §2
# MCF-10A [28] = experiment: as above
# Method: as §2
# CAL-120 [29] = experiment: as above
# Method: as §2
# Hs578T [30] = experiment: as above
# Method: as §2
# CAL-148 [31] = experiment: as above
# Method: as §2
# SK-BR-3 = experiment: as above
# Method: as §2
# BT-549 [32] = experiment: as above
# Method: as §2
# MDA-MB-231 [33] = experiment: as above
# Method: as §2
# HCC1599 [34] = experiment: as above
# Method: as §2
# CAL-51 [35] = experiment: as above
# Method: as §2
# HCC1937 [36] = experiment: as above
# Method: as §2
SMILES,normalised response (MDA-MB-468 [1]) [%],normalised response (MFM-223 [2]) [%],normalised response (HDQ-P1 [3]) [%],normalised response (DU-4475 [4]) [%],normalised response (MDA-MB-453 [5]) [%],normalised response (MDA-MB-436 [6]) [%],normalised response (CAL-85-1 [7]) [%],normalised response (HCC1143 [8]) [%],normalised response (BT-474 [9]) [%],normalised response (MCF-10A [10]) [%],normalised response (CAL-120 [11]) [%],normalised response (Hs578T [12]) [%],normalised response (CAL-148 [13]) [%],normalised response (BT-549 [14]) [%],normalised response (MDA-MB-231 [15]) [%],normalised response (HCC1599 [16]) [%],normalised response (CAL-51 [17]) [%],normalised response (HCC1937 [18]) [%],normalised response (MDA-MB-468 [19]) [%],normalised response (MFM-223 [20]) [%],normalised response (HDQ-P1 [21]) [%],normalised response (DU-4475 [22]) [%],normalised response (MDA-MB-453 [23]) [%],normalised response (MDA-MB-436 [24]) [%],normalised response (CAL-85-1 [25]) [%],normalised response (HCC1143 [26]) [%],normalised response (BT-474 [27]) [%],normalised response (MCF-10A [28]) [%],normalised response (CAL-120 [29]) [%],normalised response (Hs578T [30]) [%],normalised response (CAL-148 [31]) [%],normalised response (SK-BR-3) [%],normalised response (BT-549 [32]) [%],normalised response (MDA-MB-231 [33]) [%],normalised response (HCC1599 [34]) [%],normalised response (CAL-51 [35]) [%],normalised response (HCC1937 [36]) [%]
C=CC(=O)N1CCC[C@@H](n2nc(-c3ccc(Oc4ccccc4)cc3)c3c(N)ncnc32)C1 [Ibrutinib] (1000 nM),75.1,100,74.8,97.2,46.3,93,26.8,111,83.8,76.5,102,92,86.6,92.3,115,106,87.5,94.5,80.7,88.4,68.3,118,73.6,109,50.2,102,106,42.5,100,106,101,24.5,110,105,111,85.7,94.9
Nc1ncn([C@H]2C[C@H](O)[C@@H](CO)O2)c(=O)n1 [Decitabine] (10000 nM),90,90.5,110,104,103,73.2,70,117,94,92.6,103,123,95.5,130,126,113,65.7,113,31.5,93.3,87.8,86.2,97.7,88.7,84.5,83.6,87.4,83.8,83.9,89.4,82.6,77.7,75.2,93,94.1,82.3,74.9
N#Cc1ccc(C(c2ccc(C#N)cc2)n2cncn2)cc1 [Letrozole] (10000 nM),70.7,100,107,101,98.1,93.9,94.2,127,102,103,101,66.7,97.9,102,105,101,116,94.5,97,99.8,103,98.8,96.8,102,97.8,97.7,91.7,106,98.8,97.7,101,101,96.3,91.5,85.2,128,100
